{
  "source": "patent CN105367624A",
  "about": "“一种LLVV-Hemorphin-6肽的制备方法和用途” (Individual, priority 2015, dated 2016)",
  "system": "4T1细胞",
  "assay": "In vitro antitumor evaluation: MTT cell viability assay in 4T1 cells",
  "assay_type": "cell-based",
  "conditions": "48 h",
  "note": "Where no end group is shown, it is not given here.",
  "data": [
    {"sequence": "LLVVYPWTQR [LLVV-Hemorphin-6肽]", "values": [
      {"measurement": "细胞抑制效果 (cell inhibition effect), peptide alone at high concentration", "setting": "peptide 10 μM", "result": "存在一定的细胞抑制效果"},
      {"measurement": "细胞抑制率 (cell inhibition rate), peptide alone", "setting": "peptide 0.0001-10 μM", "result": "较低"}
    ]}
  ]
}
